We go through four compounds from patent US4508926A, “4-Hydroxy-benzhydrols, process for their preparation and pharmaceutical compositions containing them” (Richter Gedeon Vegyeszeti Gyar Rt., priority 1982, dated 1985).

The nature of data set [1]: Acute oral toxicity, 14 days observation. The conditions noted are these: rat, in vivo, 500 mg/kg.
A further data set deals with ethanolic narcosis. The experiment in a line: Ethanolic narcosis period in rats (righting reflex). Type of data set: in vivo, Hann.-Wistar rats. The conditions noted are these: 1 h before ethanol i.p., n=10, control 100 ± 5.2. The method, then: The animals were treated with various doses of the compounds of the formula (I) in groups of ten, orally, One hour after treatment the rats were treated with […]. of ethanol intraperitoneally (i.p.). The narcosis period of the animals was measured from the elapse of the righting reflex until a spontaneous correction of the body position. The average of the narcosis period and the percentage difference from the control were calculated. The control group was treated with placebo and […]. of ethanol.

The subject of data set [2] is spontaneous locomotoric activity. To be noted: in the dose range that normalizes ethanolic hyperactivity; cited from earlier work.
In data set [3] the test system is ethanolic locomotoric hyperactivity. To be noted: mice; in a dose range which decreases spontaneous locomotoric activity; cited from earlier work.
For data set [4], the system named is alcoholic intoxication, narcosis. To be noted: in vivo; cited from earlier work.

As to `CCC(O)(c1ccc(O)cc1)c1ccccc1C(F)(F)F` (stereo not drawn) [A, 2-trifluoromethyl-4'-hydroxy-α-ethyl-benzhydrol], the mortality at 336 h in data set [1] amounted to 0%. In addition, the results for the “Ethanolic narcosis period, x ± S.E.” value with ethanolic narcosis (5.0 mg./kg. orally), in the data set with ethanolic narcosis (20.0 mg./kg. orally) and with ethanolic narcosis (40.0 mg./kg. orally) were 69 ± 4.5, 52 ± 6.0 and 39 ± 3.4, respectively.

In turn, `CCC(O)(c1ccc(O)cc1)c1cccc(Cl)c1` (stereo not drawn) [B, 3-chloro-4'-hydroxy-α-ethyl-benzhydrol] showed a mortality at 336 h in data set [1] of 0%. Further, the “Ethanolic narcosis period, x ± S.E.” value with ethanolic narcosis (40.0 mg./kg. orally) is recorded as 60 ± 7.5.

`CC(N)(Cc1ccc(O)cc1)C(=O)O` (stereo not drawn) [α-Methyl-para-tyrosine]: the Spontaneous locomotoric activity entry in data set [2] was “decreases the spontaneous locomotoric activity”. In addition, the Ethanolic locomotoric hyperactivity entry in data set [3] is “normalizes the ethanolic locomotoric hyperactivity”.

`N[C@@H](CS)C(=O)O` [L-cysteine, reference compound]: the “Ethanolic narcosis period, x ± S.E.” value is 63 ± 4.2 with ethanolic narcosis (500.0 mg./kg.) and 66 ± 5.9 in the data set with ethanolic narcosis (1000.0 mg./kg.). Also, in data set [4], the “Alcoholic intoxication, narcosis” value was “shortened”.

Usually mortality stands for the share of the test organisms that died. A high value points to fewer survivors.
